Results as given in patent US8227620B2, “Pharmaceutical compounds” (Neuroscienze Pharmaness S.C. A.R.L., priority 2004, dated 2012).
Entries after “also recorded” stand apart in the source; their conditions may differ.

What was measured:
rat intestinal motility = assay: Intestinal motility, Upper Gut Transit Test; type: in vivo; settings: for antagonism of the constipating effect of the CB1 agonist WIN 55,212-2 / effect on the intestinal transit rate / intestinal portion run by the marker relative to the length run after physiological solution with Tween 80: i.p.; for intestinal portion run by the marker relative to the length run after physiological solution with Tween 80: compound alone
Method: To further evaluate the activity in vivo of the compounds (I) object of the present invention, functional tests were carried out to evaluate the effect of said compounds on the rat intestinal motility. It was indeed shown the involvement of the cannabinoidergic CB1 receptors in the intestinal motility regulation in rat (R. G. Pertwee et al; Br. J. Pharmacol.; 1996, 118, 2199-2205). In particular, the CB1 receptor agonists slacken the gastrointestinal motility; antagonist compounds of the same receptors have instead a prokinetic effect on the gastrointestinal transit (G. Colombo et al.; Eur. J. Pharmacol.; 1998, 344, 67-69; M. A. Casu et al.; Eur. J. Pharmacol.; 2003, 459, 97-105).
The evaluation of the constipating or prokinetic effect of the compounds was carried out by the Upper Gut Transit Test method on the basis of the procedure defined and ratified by Y. Nagakura et al.; Eur. J. Pharmacol.; 1996, 311, 67-72. The method, which allows to measure the motility of the stomach and of the first intestine tract (small or little intestine), implies: • the administration of the compound to be tested by i.p. route; • the administration of carmine red (marker not directly absorbable from the stomach) by intragastric route through a metal probe, after 20 minutes from the administration of the compound to be tested; • the rat sacrifice by cervical dislocation after a pre-fixed time (30 minutes) starting from the administration time; • the intestine explant from pylorus to the ileo-cecal valve; • the determination of the intestinal part crossed by the marker; • the data processing to determine the percentage of crossed part with respect to the total length of the small intestine.
With respect to the control (physiological solution or carrier wherein the compounds to be tested were solubilized or dispersed), the administration of CB1 agonist compounds implies a reduction of the intestinal transit percentage; an opposite effect is noticed in case of antagonist compounds. The latter are therefore capable to cancel the constipating effect of CB1 agonist compounds.
Each test was repeated on ten animals; the results reported in the Examples are the average of the results obtained with ten animals.

CB1 receptors [1] = biological target: T1, CB1 receptors (Rattus norvegicus, UniProt P20272); assay: Hypothermia test in vivo, compound alone (rectal temperature); parameters: from tissue; host or cells: whole animal (rat), central CB1 receptors of the hypothalamus; settings: i.p., doses 0.1, 0.5, 1.0, 3.0, 6.0 mg/kg, versus physiological solution (38° C.)
T1 sequence (P20272 whole entry): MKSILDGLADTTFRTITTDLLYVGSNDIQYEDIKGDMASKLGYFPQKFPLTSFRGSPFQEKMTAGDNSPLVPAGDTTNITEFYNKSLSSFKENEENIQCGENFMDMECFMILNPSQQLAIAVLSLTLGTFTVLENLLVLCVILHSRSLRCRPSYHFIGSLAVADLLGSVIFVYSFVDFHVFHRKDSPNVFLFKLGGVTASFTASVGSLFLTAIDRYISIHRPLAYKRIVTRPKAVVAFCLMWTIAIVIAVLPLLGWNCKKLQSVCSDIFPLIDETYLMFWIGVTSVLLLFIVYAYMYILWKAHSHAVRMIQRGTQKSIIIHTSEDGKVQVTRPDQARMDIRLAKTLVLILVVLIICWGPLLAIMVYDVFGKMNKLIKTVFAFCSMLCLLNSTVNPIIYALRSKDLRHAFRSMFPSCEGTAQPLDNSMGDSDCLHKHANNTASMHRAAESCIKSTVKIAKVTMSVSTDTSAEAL
Method: The test was carried out with the compound of the Example 3.1c. Aqueous samples were used wherein the compound of the Example 3.1c was dispersed in water with three drops of Tween 80. Following the above procedure, treatments were carried out with doses (mg compound/kg of body weight) respectively of 0.1; 0.5; 1.0; 3.0; 6.0.

CB2 receptors = biological target: T2, CB2 receptors (Rattus norvegicus, UniProt Q9QZN9); assay: Radioreceptor binding, [3H]-CP-55,940 displacement, rat spleen membranes; settings: 1 nM [3H]-CP55,940
T2 construct: the brain in toto (cerebellum excluded) and the spleen were rapidely dissected; from tissue; host or cells: rat spleen membranes
T2 sequence (Q9QZN9 1-360): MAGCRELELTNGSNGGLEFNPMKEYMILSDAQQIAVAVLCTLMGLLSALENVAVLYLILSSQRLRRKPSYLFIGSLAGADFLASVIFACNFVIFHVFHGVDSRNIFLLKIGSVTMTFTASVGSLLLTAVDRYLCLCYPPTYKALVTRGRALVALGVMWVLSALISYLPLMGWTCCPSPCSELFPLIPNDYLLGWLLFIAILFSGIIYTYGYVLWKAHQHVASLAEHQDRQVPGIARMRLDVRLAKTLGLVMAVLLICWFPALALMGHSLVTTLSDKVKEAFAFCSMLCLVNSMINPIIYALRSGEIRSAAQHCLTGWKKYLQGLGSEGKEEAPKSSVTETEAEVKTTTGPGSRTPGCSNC
Description: (§1) The receptorial binding technique allows indeed to establish if and with what affinity and specificity a determined compound binds itself to a particular receptor. To evaluate the affinity of a determined compound towards a particular receptor, a particular preparation of the tissue wherein the receptors are present is used and the tested compound is made to compete with another compound, treated so as to make it radioactive and of which the affinity for the receptor is known. […] The reading of the radioactivity present in the receptor-compound complex allows furthermore to precisely calculate the compound amount bound to the receptor. By this method it is therefore possible to rapidely identify the affinity of a new compound towards a specific receptor and thus to make predictions on its pharmacological activity. By repeating the same experimental scheme it is possible to evaluate the affinity of the compound towards other kinds of receptors and thus establish the specificity degree.
(§2) Food and water were available ad libitum.
(§3) The animals were sacrificed by cervical dislocation, the brain in toto (cerebellum excluded) and the spleen were rapidely dissected and maintained in ice.
(§4) The tissue was homogenized in 15 volumes (weight/volume) of TME buffer (50 mM Tris, 1 mM EDTA e 3 mM MgCl2, pH 7.4) by an Ultra-Turrax and centrifuged for 10 minutes at 1086×g in a centrifuge cooled at 4° C. The resulting supernatant was centrifuged at 45,000×g for 30 min at 4° C. by using a Beckman SW41 rotor and the final pellet was resuspended in 50 volumes of TME.
(§5) The obtained membranes (50-80 μg of proteins) were incubated in the presence of 1 nM di [^3H]-CP55,940 for 1 h at 30° C. in a final volume of 0.5 ml of TME buffer containing 5 mg/ml of bovine serum albumin (BSA). The non specific binding was measured in the presence of CP55,940 at the 1 μM concentration. […]
(§6) The radioactivity present in the filters was measured by a scintillator spectrophotometer (Tricarb 2100, Packard, Meridien, USA). […]

CB1 receptors [2] = biological target: T1, CB1 receptors; assay: Radioreceptor binding, [3H]-CP-55,940 displacement, rat brain membranes; parameters: from tissue; host or cells: whole animal (rat), central CB1 receptors of the hypothalamus; settings: 1 nM [3H]-CP55,940
Description: as §1, §2, §3, §4, §5, §6

Cc1c(C(=O)NN2CCCCC2)nn(-c2ccc(Cl)cc2Cl)c1-c1ccc(Cl)s1 [Example 3.1b, N-piperidinyl-5-(5-Chloro-thiophen-2-yl)-1-(2′,4′-dichloro-phenyl)-4-methyl-1H-pyrazol-3-carboxamide]
length run by the marker relative to physiological solution, WIN 55,212-2 preceded by the compound (rat intestinal motility; WIN 55,212-2 0.5 mg/kg preceded by compound 1.0 mg/kg): the same length
antagonism of the constipating effect of the CB1 agonist WIN 55,212-2 (rat intestinal motility): capable to antagonize the effect of a CB1 agonist; also recorded: capable to antagonize the constipating effect of the CB1 agonist WIN 55,212-2
effect on the intestinal transit rate (rat intestinal motility): increase the intestinal transit rate
intestinal portion run by the marker relative to the length run after physiological solution with Tween 80 (rat intestinal motility; 0.5 mg of compound/kg): 1.57 times
intestinal portion run by the marker relative to the length run after physiological solution with Tween 80 (rat intestinal motility; 1.0 mg of compound/kg): 1.76 times
effect of the compound as such on body temperature (CB1 receptors [1]): does not cause as such any effect on the body temperature
Ki (CB2 receptors): 476 ± 3 nM
Ki (CB1 receptors [2]): 35 ± 2.5 nM

N-pyrrolidinyl-5-(5-Chloro-thiophen-2-yl)-1-(2,4′-dichloro-phenyl)-4-methyl-1H-pyrazol-3-carboxamide [Example 3.1d]
length run by the marker relative to physiological solution, WIN 55,212-2 preceded by the compound (rat intestinal motility; WIN 55,212-2 0.5 mg/kg preceded by compound 0.5 mg/kg): the same length
antagonism of the constipating effect of the CB1 agonist WIN 55,212-2 (rat intestinal motility): capable to antagonize the effect of a CB1 agonist
effect on the intestinal transit rate (rat intestinal motility): increase the intestinal transit rate
intestinal portion run by the marker relative to the length run after physiological solution with Tween 80 (rat intestinal motility; 0.5 mg of compound/kg): 1.61 times
intestinal portion run by the marker relative to the length run after physiological solution with Tween 80 (rat intestinal motility; 1.0 mg of compound/kg): 1.74 times
effect of the compound as such on body temperature (CB1 receptors [1]): does not cause as such any effect on the body temperature
Ki (CB2 receptors): 699 ± 21 nM
Ki (CB1 receptors [2]): 63 ± 7.2 nM
